These results are taken from US8426429B2, “2-amino-quinazoline derivatives useful as inhibitors of β-secretase (BACE)” (Jansssen Pharmaceutica N.V., priority 2004, dated 2013).

The experiment deals with T1, β-secretase (BACE) (Homo sapiens, UniProt P56817).
T1 construct: purchased Panvera
The experiment in a line: BACE FS1 % Inhibition Assay. In kind it is biochemical. In a few lines: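 Percent inhibition per compound concentration was referenced to vehicle-treated enzyme and no-enzyme wells. Enzyme at a 4 μg/mL working stock plus compound was mixed for 20 min at room temperature before the FS1 substrate (300 μg/mL working stock) was added for a 1 h room-temperature reaction.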

T1 sequence (P56817 46-501): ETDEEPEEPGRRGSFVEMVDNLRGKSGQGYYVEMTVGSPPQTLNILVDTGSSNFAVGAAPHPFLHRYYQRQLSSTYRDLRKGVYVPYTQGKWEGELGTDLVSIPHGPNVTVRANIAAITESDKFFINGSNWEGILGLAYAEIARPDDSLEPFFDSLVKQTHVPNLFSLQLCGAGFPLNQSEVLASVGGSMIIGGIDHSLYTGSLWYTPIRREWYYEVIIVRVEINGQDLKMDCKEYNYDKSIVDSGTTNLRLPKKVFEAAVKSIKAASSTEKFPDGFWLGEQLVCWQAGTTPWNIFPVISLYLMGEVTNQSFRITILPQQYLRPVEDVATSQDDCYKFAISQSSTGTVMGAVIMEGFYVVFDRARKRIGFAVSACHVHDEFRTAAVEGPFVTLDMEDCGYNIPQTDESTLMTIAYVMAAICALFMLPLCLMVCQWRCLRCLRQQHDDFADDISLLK

Regarding `CCCC(=O)NCCN1Cc2cc(-c3ccncc3)ccc2N=C1N` [Compound 570], the “% Inhibition (FS)” value was <30% (0.3 μM test compound), <30% (1 μM test compound) and <30% (3 μM test compound).

Consider `COc1ccc(F)cc1-c1ccc2c(c1)CN(CCNC(=O)C1CCCCC1)C(N)=N2` [Compound 631], for which the “% Inhibition (FS)” value (0.3 μM test compound) is <30%, the “% Inhibition (FS)” value (1 μM test compound) was <30% and the “% Inhibition (FS)” value (3 μM test compound) is on record as 48%.

Turning to `CN(C)Cc1ccccc1-c1ccc2c(c1)CN(Cc1cccc(C(=O)N(C)C3CCCCC3)c1)C(N)=N2` [Compound 172], the “% Inhibition (FS)” value runs as follows: (0.3 μM test compound) <30%; (1 μM test compound) <30%; (3 μM test compound) <30%.

For the compound `CN(C(=O)c1cccc(CN2Cc3cc(-c4ccncc4)ccc3N=C2N)c1)C1CCCCC1` [Compound 168], the “% Inhibition (FS)” value reads like this: (0.3 μM test compound) <30%; (1 μM test compound) <30%; (3 μM test compound) <30%.

Turning to `CN(C(=O)c1cccc(CN2Cc3cc(OCC4CCCC4)ccc3N=C2N)c1)C1CCCCC1` [Compound 521], the “% Inhibition (FS)” value is <30% (0.3 μM test compound), <30% (1 μM test compound) and <30% (3 μM test compound).

On to `CN(CCc1ccccc1)C(=O)CC[C@@H](C1CCCCC1)N1Cc2cc(-c3ccccc3F)ccc2N=C1N` [Compound 727], for which the “% Inhibition (FS)” value runs as follows: (0.3 μM compound, FS1 substrate) 46%; (1 μM compound, FS1 substrate) 80%.

As for `CCCN(CC1CC1)C(=O)c1cccc(CN2Cc3cc(Oc4ccccc4)ccc3N=C2N)c1` [Compound 197], the “% Inhibition (FS)” value runs as follows: (0.3 μM test compound) <30%; (1 μM test compound) <30%; (3 μM test compound) 32%.

Consider `Cc1ccccc1-c1ccc2c(c1)CN(CCNC(=O)CCC(F)(F)F)C(N)=N2` [Compound 678], for which the “% Inhibition (FS)” value runs as follows: (0.3 μM compound, FS1 substrate) 51%; (1 μM compound, FS1 substrate) 88%; (3 μM compound, FS1 substrate) 99%.

As for `CCc1ccccc1Sc1ccc2c(c1)CN(Cc1cccc(C(=O)N(C)C3CCCCC3)c1)C(N)=N2` [Compound 406], the “% Inhibition (FS)” value is, setting by setting: (0.3 μM test compound) <30%; (1 μM test compound) <30%; (3 μM test compound) 50%.

In the case of `CC(C)(C)OC(=O)NCC(c1ccccc1)N1Cc2cc(Oc3ccccc3)ccc2N=C1N` (centres unmarked) [Compound 258], the “% Inhibition (FS)” value by setting is: (0.3 μM test compound) <30%; (1 μM test compound) 46%; (3 μM test compound) 72%.

In the case of `CCCC(CCCC(=O)N(C)C1CCCCC1)N1Cc2cc(Oc3ccccc3)ccc2N=C1N` (centres unmarked) [Compound 90], the “% Inhibition (FS)” value is 106% (3 μM test compound) and 124% (10 μM test compound).

As for `COc1ccccc1-c1ccc2c(c1)CN(C(CCC(=O)N(C)C1CCCCC1)C1CCCCC1)C(N)=N2` (centres unmarked) [Compound 227], the “% Inhibition (FS)” value by setting is: (0.3 μM test compound) 86%; (1 μM test compound) 109%; (3 μM test compound) 116%.

Consider `CN(C(=O)c1cccc(CN2Cc3cc(Nc4ccc(N5CCOCC5)cc4)ccc3N=C2N)c1)C1CCCCC1` [Compound 439], for which the “% Inhibition (FS)” value was <30% (0.3 μM test compound), <30% (1 μM test compound) and <30% (3 μM test compound).

`NC1=Nc2ccc(-c3ccc(F)cc3)cc2CN1CCNC(=O)C1CCCCC1` [Compound 623]: the “% Inhibition (FS)” value by setting is: (0.3 μM test compound) <30%; (1 μM test compound, 1 µM) <30%; (3 μM test compound, 3 µM) 82%.

For `NC1=Nc2ccc(-c3ccc4ccccc4c3)cc2CN1CCNC(=O)C1CCCC1` [Compound 664], the “% Inhibition (FS)” value (0.3 μM compound, FS1 substrate) is listed as <30%; the “% Inhibition (FS)” value (1 μM compound, FS1 substrate) is recorded as <30%; the “% Inhibition (FS)” value (3 μM compound, FS1 substrate) is on record as <30%.

For `CSc1ccccc1Oc1ccc2c(c1)CN(Cc1cccc(C(=O)N(C)C3CCCCC3)c1)C(N)=N2` [Compound 474], the “% Inhibition (FS)” value runs as follows: (0.3 μM test compound) <30%; (1 μM test compound) <30%; (3 μM test compound) <30%.

Regarding `NC1=Nc2ccc(Oc3ccccc3)cc2CN1CCNC(=O)c1ccc(-c2ccccc2)cc1` [Compound 195], the “% Inhibition (FS)” value reads like this: (0.3 μM test compound) <30%; (1 μM test compound) <30%; (3 μM test compound) <30%.

`CCCC(CCC)C(=O)N1CCC(CN2Cc3cc(Oc4ccccc4)ccc3N=C2N)CC1` [Compound 526]: the “% Inhibition (FS)” value (0.3 μM test compound) was <30%, the “% Inhibition (FS)” value (1 μM test compound) came out at 36% and the “% Inhibition (FS)” value (3 μM test compound) stood at 98%.

Consider `CN(Cc1cc(-c2ccccc2)on1)C(=O)CC[C@@H](C1CCCCC1)N1Cc2cc(-c3ccccc3F)ccc2N=C1N` [Compound 724], for which the “% Inhibition (FS)” value is, setting by setting: (0.3 μM compound, FS1 substrate) 38%; (1 μM compound, FS1 substrate) <30%; (3 μM compound, FS1 substrate) 65%.

In the case of `CC(C)[C@@H](CNC(=O)C1CCCCC1)N1Cc2cc(Oc3ccccc3)ccc2N=C1N` [Compound 528], the “% Inhibition (FS)” value runs as follows: (0.3 μM test compound) <30%; (1 μM test compound) <30%; (3 μM test compound) 41%.

For `CCCC(=O)NCCN1Cc2cc(-c3ccc4ccccc4c3)ccc2N=C1N` [Compound 666], the “% Inhibition (FS)” value by setting is: (0.3 μM compound, FS1 substrate) 37%; (1 μM compound, FS1 substrate) <30%; (3 μM compound, FS1 substrate) <30%.

`NC1=Nc2ccc(Oc3c(F)cccc3F)cc2CN1CCC(=O)NC1C2CC3CC(C2)CC1C3` (centres unmarked) [Compound 529]: the “% Inhibition (FS)” value reads like this: (0.3 μM test compound) <30%; (1 μM test compound) <30%; (3 μM test compound) 66%.

Turning to `NC1=Nc2ccc(-c3ccc(F)cc3)cc2CN1CCNC(=O)C1CCCCC1` [Compound 624], the “% Inhibition (FS)” value by setting is: (0.3 μM test compound) <30%; (1 μM test compound, 1 µM) 38%; (3 μM test compound, 3 µM) 78%.

As for `CN(C)c1cccc(Oc2ccc3c(c2)CN(Cc2cccc(C(=O)N(C)C4CCCCC4)c2)C(N)=N3)c1` [Compound 479], the “% Inhibition (FS)” value is recorded as <30% (0.3 μM test compound), <30% (1 μM test compound) and 81% (3 μM test compound).

On to `COc1cccc(C)c1Oc1ccc2c(c1)CN(Cc1cccc(C(=O)N(C)C3CCCCC3)c1)C(N)=N2` [Compound 468], for which the “% Inhibition (FS)” value is listed as <30% (0.3 μM test compound), <30% (1 μM test compound) and <30% (3 μM test compound).

Consider `CCc1ccccc1-c1ccc2c(c1)CN(Cc1cccc(C(=O)N(C)C3CCCCC3)c1)C(N)=N2` [Compound 320], for which the “% Inhibition (FS)” value reads like this: (0.3 μM test compound) −31%; (1 μM test compound) <30%; (3 μM test compound) <30%.

On to `CN(C(=O)c1cccc(CN2Cc3cc(OCc4ccccc4-c4ccccc4)ccc3N=C2N)c1)C1CCCCC1` [Compound 513], for which the “% Inhibition (FS)” value reads like this: (0.3 μM test compound) <30%; (1 μM test compound) <30%; (3 μM test compound) <30%.

As for `CC(=O)Nc1ccccc1-c1ccc2c(c1)CN(CCNC(=O)C1CCCCC1)C(N)=N2` [Compound 541], the “% Inhibition (FS)” value by setting is: (0.3 μM test compound) <30%; (1 μM test compound) <30%; (3 μM test compound) <30%.

For the compound `CN(C(=O)c1cccc(CN2Cc3cc(Oc4ccccc4-c4nc5ccccc5s4)ccc3N=C2N)c1)C1CCCCC1` [Compound 470], the “% Inhibition (FS)” value is, setting by setting: (0.3 μM test compound) <30%; (1 μM test compound) <30%; (3 μM test compound) 31%.

Regarding `NC1=Nc2ccc(-c3ccccc3)cc2CN1CCNC(=O)CCC(F)(F)F` [Compound 684], the “% Inhibition (FS)” value reads like this: (0.3 μM compound, FS1 substrate) 33%; (1 μM compound, FS1 substrate) 38%; (3 μM compound, FS1 substrate) 78%.

Take `CC(=O)N1CCC(C(=O)NCCN2Cc3cc(-c4ccccc4C)ccc3N=C2N)CC1` [Compound 695]: the “% Inhibition (FS)” value is on record as <30% (0.3 μM compound, FS1 substrate); <30% (1 μM compound, FS1 substrate); 54% (3 μM compound, FS1 substrate).

For `CC(C)(C)OC(=O)NCc1cccc(CN2Cc3cc(Oc4ccccc4)ccc3N=C2N)c1` [Compound 315], the “% Inhibition (FS)” value (0.3 μM test compound) is recorded as <30%, the “% Inhibition (FS)” value (1 μM test compound) is <30% and the “% Inhibition (FS)” value (3 μM test compound) came out at 33%.

For `CC(C)(C)C(=O)NCCN1Cc2cc(-c3ccc4ccccc4c3)ccc2N=C1N` [Compound 667], the “% Inhibition (FS)” value reads like this: (0.3 μM compound, FS1 substrate) 33%; (1 μM compound, FS1 substrate) <30%; (3 μM compound, FS1 substrate) <30%.

For `CCC(c1cccc(C(=O)N(C)C2CCCCC2)c1)N1Cc2cc(-c3ccccc3OC)ccc2N=C1N` (centres unmarked) [Compound 395], the “% Inhibition (FS)” value was determined as 69% (0.3 μM test compound), 107% (1 μM test compound) and 118% (3 μM test compound).

As for `CN(C(=O)CCC(C1CCCCC1)N1Cc2cc(Oc3ccccc3)ccc2N=C1N)C1CCC(C#N)CC1` (centres unmarked) [Compound 769], the “% Inhibition (FS)” value runs as follows: (0.3 μM compound, FS1 substrate) <30%; (1 μM compound, FS1 substrate) 61%.

`NC1=Nc2ccc(Oc3ccccc3)cc2CN1C1CCCCN(C(=O)C2CCCCC2)C1` (centres unmarked) [Compound 551]: the “% Inhibition (FS)” value (0.3 μM test compound) was <30%, the “% Inhibition (FS)” value (1 μM test compound) was <30% and the “% Inhibition (FS)” value (3 μM test compound) is on record as <30%.

Turning to `CCCCCCCCCC(=O)NCCN1Cc2cc(Oc3ccccc3)ccc2N=C1N` [Compound 142], the “% Inhibition (FS)” value was <30% (3 μM test compound) and 38% (10 μM test compound).

Regarding `NC1=Nc2ccc(Oc3ccccc3)cc2CN1Cc1cccc(NC(=O)C2CCCCC2)c1` [Compound 286], the “% Inhibition (FS)” value was <30% (0.3 μM test compound), <30% (1 μM test compound) and 36% (3 μM test compound).

As to `CC(=O)c1cccc(-c2ccc3c(c2)CN(CCNC(=O)Cc2ccccc2)C(N)=N3)c1` [Compound 598], the “% Inhibition (FS)” value (0.3 μM test compound) was <30%, the “% Inhibition (FS)” value (1 μM test compound) is <30% and the “% Inhibition (FS)” value (3 μM test compound) is given as 36%.

In the case of `CC(C)c1ccccc1Oc1ccc2c(c1)CN(CCC(=O)NC1C3CC4CC(C3)CC1C4)C(N)=N2` (centres unmarked) [Compound 466], the “% Inhibition (FS)” value (0.3 μM test compound) is reported as <30%, the “% Inhibition (FS)” value (1 μM test compound) was <30% and the “% Inhibition (FS)” value (3 μM test compound) turned out to be 53%.

Regarding `CC(C)C(=O)NCC(C1CCCCC1)N1Cc2cc(Oc3ccccc3)ccc2N=C1N` (centres unmarked) [Compound 301], the “% Inhibition (FS)” value is, setting by setting: (0.3 μM test compound) <30%; (1 μM test compound) 82%; (3 μM test compound) 106%.
